Experimental data as given in ChEMBL document CHEMBL1201862, “PubChem BioAssay data set” (2004).
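Interpolation was linear, between the two tested concentrations surrounding the appropriate level; five concentrations were tested over 48 hours in 96-well plates. GI50 is the concentration that inhibits growth by half.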 Active and inactive are the calls of the source. Cut-off read from the data, not from the text of the source: active = GI50 up to about 1.1 µM and inactive = higher.

How the values were obtained:
Test in all cases: NCI tumour cell line growth inhibition, 48 h
OVCAR-4 = test system: OVCAR-4
Hs-578T = test system: Hs-578T
SF-295 = test system: SF-295
IGROV-1 = test system: IGROV-1
786-0 = test system: 786-0
MDA-MB-231 = test system: MDA-MB-231
SK-OV-3 = test system: SK-OV-3
HCT-116 = test system: HCT-116
NCI-H23 = test system: NCI-H23
CCRF-CEM = test system: CCRF-CEM
SK-MEL-2 = test system: SK-MEL-2
A498 = test system: A498
PC-3 = test system: PC-3
OVCAR-3 = test system: OVCAR-3
LOX IMVI = test system: LOX IMVI
MCF7 = test system: MCF7
NCI/ADR-RES = test system: NCI/ADR-RES
NCI-H522 = test system: NCI-H522
HOP-62 = test system: HOP-62
SNB-19 = test system: SNB-19

Row | Compound | GI50 (OVCAR-4) | GI50 (Hs-578T) | GI50 (SF-295) | GI50 (IGROV-1) | GI50 (786-0) | GI50 (MDA-MB-231) | GI50 (SK-OV-3) | GI50 (HCT-116) | GI50 (NCI-H23) | GI50 (CCRF-CEM) | GI50 (SK-MEL-2) | GI50 (A498) | GI50 (PC-3) | GI50 (OVCAR-3) | GI50 (LOX IMVI) | GI50 (MCF7) | GI50 (NCI/ADR-RES) | GI50 (NCI-H522) | GI50 (HOP-62) | GI50 (SNB-19)
1 | CCOC(=O)Cn1c(=O)c2nc(SC)sc2n(-c2ccc(C)cc2)c1=S | 10.2 µM (inactive) | 19.2 µM (inactive) | > 71.6 µM (inactive) | 55.3 µM (inactive) | 18.1 µM (inactive) | 52.7 µM (inactive) | 45.8 µM (inactive) | > 71.8 µM (inactive) | > 49 µM (inactive) | > 100 µM (inactive) | 23.7 µM (inactive) | 46.8 µM (inactive) | 38.1 µM (inactive) | 50.4 µM (inactive) | > 100 µM (inactive) | > 100 µM (inactive) | 50.6 µM (inactive) | 79.6 µM (inactive) | 20 µM (inactive) | 20.4 µM (inactive)
2 | Cc1c(N)nc(C(CC(N)=O)NCC(N)C(N)=O)nc1C(=O)NC(C(=O)NC(C)C(O)C(C)C(=O)NC(C(=O)NCCc1nc(-c2nc(C(=O)NCCCNC(C)c3ccccc3)cs2)cs1)C(C)O)C(OC1OC(CO)C(O)C(O)C1OC1OC(CO)C(O)C(OC(N)=O)C1O)c1c[nH]cn1 (stereo not given) | 7.4 µM (inactive) | 0.0482 µM (active) | 0.163 µM (active) | 9.51 µM (inactive) | 0.419 µM (active) | > 50 µM (inactive) | 10.2 µM (inactive) | 0.328 µM (active) | 0.753 µM (active) | 4.33 µM (inactive) | 16.8 µM (inactive) | 1.69 µM (inactive) | > 50 µM (inactive) | 8.05 µM (inactive) | 0.108 µM (active) | 4.4 µM (inactive) | 1.57 µM (inactive) | 2.65 µM (inactive) | 0.0998 µM (active) | 8.39 µM (inactive)
3 | O=C1C=CC(=O)c2c(O)ccc(O)c21 [NAPHTHAZALIN] | 2.39 µM (inactive) | 2.17 µM (inactive) | 7.91 µM (inactive) | 7.96 µM (inactive) | 1.14 µM (inactive) | 2.22 µM (inactive) | 12.7 µM (inactive) | 0.9 µM (active) | 2.61 µM (inactive) | 0.155 µM (active) | 7.64 µM (inactive) | 2.96 µM (inactive) | 12.8 µM (inactive) | 2.09 µM (inactive) | 1.56 µM (inactive) | 2.32 µM (inactive) | 1.92 µM (inactive) | 0.505 µM (active) | 9.75 µM (inactive) | 8.41 µM (inactive)
4 | CC[C@H](C)C1=C(O)[N@+]2([O-])Oc3ccc(-c4c(O)c(O)c(-c5ccc(OC(C)=O)cc5)c(OC(C)=O)c4OC(C)=O)cc3O[C@]2([C@@H](C)CC)C(=O)N1O | 8.79 µM (inactive) | 39.2 µM (inactive) | 21.6 µM (inactive) | 8.85 µM (inactive) | 21.4 µM (inactive) | 21.9 µM (inactive) | 15.4 µM (inactive) | 9.86 µM (inactive) | > 50 µM (inactive) | 10.3 µM (inactive) | > 50 µM (inactive) | 12.9 µM (inactive) | 34 µM (inactive) | 16.4 µM (inactive) | 12.9 µM (inactive) | 24.2 µM (inactive) | 12.9 µM (inactive) | 8.43 µM (inactive) | 32 µM (inactive) | 45.3 µM (inactive)
5 | CC[C@](O)(CC(=O)O[C@H]1C(=O)O[C@@H]2C[C@H]3C(C)=CC(=O)[C@@H](O)[C@]3(C)[C@H]3[C@@]4(O)OC[C@]32[C@@H]1[C@@H](C)[C@H]4O)C(C)C | < 0.01 µM (active) | < 0.01 µM (active) | < 0.01 µM (active) | < 0.01 µM (active) | < 0.01 µM (active) | < 0.01 µM (active) | < 0.01 µM (active) | < 0.01 µM (active) | < 0.01 µM (active) | < 0.01 µM (active) | < 0.01 µM (active) | < 0.01 µM (active) | < 0.01 µM (active) | < 0.01 µM (active) | < 0.01 µM (active) | < 0.01 µM (active) | < 0.0188 µM (active) | < 0.01 µM (active) | < 0.01 µM (active) | < 0.01 µM (active)
6 | CCCCCCCCP(=O)(O)OP(=O)(O)OCC1OC(n2ccc(N)nc2=O)C(O)C1O (stereo not given) | > 100 µM (inactive) | > 100 µM (inactive) | > 100 µM (inactive) | > 100 µM (inactive) | > 100 µM (inactive) | > 100 µM (inactive) | > 100 µM (inactive) | > 100 µM (inactive) | > 100 µM (inactive) | > 100 µM (inactive) | > 100 µM (inactive) | > 100 µM (inactive) | > 100 µM (inactive) | > 100 µM (inactive) | > 100 µM (inactive) | > 100 µM (inactive) | > 100 µM (inactive) | > 100 µM (inactive) | > 100 µM (inactive) | > 100 µM (inactive)
7 | O=[N+]([O-])c1cccc(/C=N/N=c2\ccc3ccccc3[nH]2)c1O | 1.07 µM (active) | 16.2 µM (inactive) | 1.01 µM (active) | 2.02 µM (inactive) | 0.658 µM (active) | 2.78 µM (inactive) | 1.86 µM (inactive) | 0.526 µM (active) | 1.82 µM (inactive) | 0.175 µM (active) | 4.4 µM (inactive) | 5.68 µM (inactive) | 2.7 µM (inactive) | 0.185 µM (active) | 1.47 µM (inactive) | 1.94 µM (inactive) | 0.151 µM (active) | 1.2 µM (inactive) | 0.815 µM (active) | 4.92 µM (inactive)
8 | CCOC(=O)/C=C(/C(=O)OCC)n1cc(C)c(=O)n(Cc2cnnn2COCCOC(C)=O)c1=O | 24.7 µM (inactive) | 19.1 µM (inactive) | > 100 µM (inactive) | 17 µM (inactive) | 7.31 µM (inactive) | 16 µM (inactive) | > 100 µM (inactive) | 13.3 µM (inactive) | 15.8 µM (inactive) | 2.17 µM (inactive) | 28.4 µM (inactive) | 29.2 µM (inactive) | 17.2 µM (inactive) | 15.3 µM (inactive) | 14.8 µM (inactive) | 10.5 µM (inactive) | 23.6 µM (inactive) | 1.58 µM (inactive) | 49.7 µM (inactive) | > 58.5 µM (inactive)
9 | Cc1cccc(C)c1NC(=O)C(=O)CC(=O)c1sc(Nc2c(C)cccc2C)nc1C | > 100 µM (inactive) | > 100 µM (inactive) | > 100 µM (inactive) | > 100 µM (inactive) | > 100 µM (inactive) | > 100 µM (inactive) | > 100 µM (inactive) | > 100 µM (inactive) | > 100 µM (inactive) | > 100 µM (inactive) | > 100 µM (inactive) | 86.7 µM (inactive) | > 100 µM (inactive) | > 100 µM (inactive) | > 100 µM (inactive) | > 100 µM (inactive) | > 100 µM (inactive) | > 100 µM (inactive) | > 100 µM (inactive) | > 100 µM (inactive)
10 | CC(=O)NC1C(OCc2ccccc2)OC(CO)C(O)C1OC(C)C(=O)NC(C)C(=O)NC(CCC(=O)NCCCNc1c2ccccc2nc2cccc([N+](=O)[O-])c12)C(N)=O (stereo not given) | 5.14 µM (inactive) | 6.78 µM (inactive) | 3.26 µM (inactive) | 19.1 µM (inactive) | 2.77 µM (inactive) | 1.36 µM (inactive) | 7.26 µM (inactive) | 0.263 µM (active) | 2.55 µM (inactive) | 7.48 µM (inactive) | 1.32 µM (inactive) | 2.01 µM (inactive) | 0.618 µM (active) | 2.34 µM (inactive) | 3.65 µM (inactive) | 0.64 µM (active) | 4.09 µM (inactive) | 1.48 µM (inactive) | 1.91 µM (inactive) | 3.67 µM (inactive)
11 | COC(=O)C1=NN2c3ccccc3CN([C@@H](C)c3ccccc3)C(=O)[C@@H]2C1 | 13.3 µM (inactive) | 41.1 µM (inactive) | 40.2 µM (inactive) | 64.1 µM (inactive) | 41.2 µM (inactive) | 57 µM (inactive) | > 100 µM (inactive) | 32.4 µM (inactive) | 32.9 µM (inactive) | 25.7 µM (inactive) | 28.7 µM (inactive) | 91.8 µM (inactive) | 31.4 µM (inactive) | 30.8 µM (inactive) | 25.5 µM (inactive) | 34.8 µM (inactive) | 21 µM (inactive) | 21.7 µM (inactive) | 57.7 µM (inactive) | 39.6 µM (inactive)
12 | COc1ccc2oc(=O)c(-c3nc4ccccc4o3)cc2c1 | > 100 µM (inactive) | > 100 µM (inactive) | 61.7 µM (inactive) | > 100 µM (inactive) | > 100 µM (inactive) | 32.7 µM (inactive) | > 100 µM (inactive) | > 100 µM (inactive) | > 100 µM (inactive) | > 100 µM (inactive) | > 100 µM (inactive) | 67.9 µM (inactive) | > 100 µM (inactive) | 59.4 µM (inactive) | > 100 µM (inactive) | 32.7 µM (inactive) | 40.5 µM (inactive) | 50.2 µM (inactive) | 64.9 µM (inactive) | > 100 µM (inactive)
13 | CC(C)CNC(=O)O | > 100 µM (inactive) | > 100 µM (inactive) | > 100 µM (inactive) | > 100 µM (inactive) | > 100 µM (inactive) | > 100 µM (inactive) | > 100 µM (inactive) | > 100 µM (inactive) | > 100 µM (inactive) | > 100 µM (inactive) | > 100 µM (inactive) | > 100 µM (inactive) | > 100 µM (inactive) | > 100 µM (inactive) | > 100 µM (inactive) | > 100 µM (inactive) | > 100 µM (inactive) | > 100 µM (inactive) | > 100 µM (inactive) | > 100 µM (inactive)
